# Results: patent publication US11497761B2, “Compositions for the treatment of metastatic cancer” (priority 2019, dated 2022)
# System: iCTCs from pancreatic cancer patients
# Test: iCTC drug response (CDR) testing ex vivo, Project 1 Study-Pancreatic Cancer
# Assay type: cell-based, human
# Conditions: for number of live iCTCs remaining after treatment: 72 hours
# Protocol: Materials for Project 1 Study-Pancreatic Cancer • Blood collection tubes: BD Vacutainer® 10 mL sodium heparin tube (BD catalog #367874)). • Vita-Assay™ AN6W plate. • Blood: pancreatic cancer, up to 40-mL blood collected from patients and provided by Conversant Bio. • Stock solution and dilutions • Monolaurin 4.78 mM with 0.75% PS-80 (Stock Solution C), 13.1 mg monolaurin in 0.25 mL PS-80 and 0.75 mL water and 0.1 mL of this solution was diluted with 0.9 mL of RPMI. Stocks are stable for 2 weeks at 4 degrees C. Monolaurin used is an equal mixture of 1-, 2-, and 3-isomers of monolaurin. • Monolaurin dilution: add 209.2 uL, 627.6 uL, and 1.2552 mL of monolaurin in 0.75% PS-80 (Stock solution C), and dilute to 10 mL of media to achieve final concentrations of 100 uM, 200 uM, 300 uM as indicated.
# With respect to FIG. 1, a depiction of a generalized experimental scheme for testing efficacy of a composition in accordance with an exemplary embodiment of the present invention against iCTC from the blood of pancreatic cancer patients is shown. Invasive circulating tumor cells (iCTCs) were obtained from venous blood of the individual with advanced pancreatic cancer, cultured and exposed to a specific drug or battery of drugs at 1×, 2×, and 3× concentrations in vitro for 3 days. Drug responsiveness was measured by automatic flow cytometry using the reduction of live iCTCs in the treated samples from the number of live iCTCs in the untreated controls. The greater the reduction of iCTCs of a given drug at a given dose indicates greater responsiveness to that dose of the drug. Four AN6W plates were used for each sample. Control and drug at each dose in triplicate were incubated for 72 hours. The iCTCs were measured by flow cytometry and viewed by microscopy as described. The complete culture medium contains 10% fetal bovine serum.
# The complete experimental procedure for Project 1 Study-Pancreatic Cancer, with reference to FIG. 1, is as follows:
# 1. Blood collection: up to 40-mL of blood was collected in several sodium heparin tubes from each patient.
# 2. Plasma collection: The patient sample tubes were pooled into a clean 50-mL conical tube and spun at 1,500 rpm for 8 mins at room temperature to separate plasma from blood cells. 3-4 mL of plasma were then collected into a clean 4.5-mL cell-frozen vial (up to 4 vials per patient), a labeled attached and the plasma stored at −80° C. freezer for use. 3. Calculated 50-mL tubes required for lysis of red blood cells: original blood volume. i.e., 36-mL,/2-mL=18. 4. Aliquotted 1/18 the remaining cell fraction into 18 new 50-mL tubes. 5. Red cell lysis: Added 48-mL of 1× red cell lysis buffer into each 50-mL tube to lyse red cells. Tubes placed on a roller mixer at 20-25° C. for 5 min. Cells spun down using low speed centrifugation (1,000 rpm). 6. iCTCs were captured using AN6W plate with or without drug treatment. 7. Drug treatment: Add 1-mL of CTC Capture Medium (standard culture medium containing 10% serum) with or without drugs (3× strength) to each 2-mL of the cell suspension in one well of the AN6W plate. 8. Cell culture: Culture cells in a 5% CO2 incubator at 37° C. for overnight, 72 hours, and 7 days. 9. CAM-enzyme elution of CAM-captured cells: Wells will be washed twice using 2-mL of 1×PBS. Add 0.8-mL of the activated CAM enzyme working solution into the well, and place at 37° C. for 15 min. Transfer cell suspension into a 15-mL conical centrifuge tube. Wash well by pipetting 2-mL of 1×PBS into the well and collect/transfer wash solution into the pool cell suspension. CAM-captured tumor cells will be collected using low speed centrifugation (1,000 rpm) of the conical tube. 10. Preparation of the cells for flow cytometry: Fix the cells by using 1×BD cell fixing buffer and keep at room temperature for 5 min. Add 3-mL of 1×PBS (containing 0.2% BSA buffer), spin down cells and remove the supernatant. 11. […]
compound,measurement,setting,value
"CCCCCCCCCCCC(=O)OCC(O)CO (stereo not shown) [Monolaurin, glycerol monolaurate]",kill rates of iCTCs (summary),iCTCs from pancreatic cancer patients,high kill rates
same,number of live iCTCs remaining after treatment,"patient RP01 (Folfirinox), iCTC control 550, 100 uM monolaurin",50
same,number of live iCTCs remaining after treatment,"patient RP01 (Folfirinox), iCTC control 550, 200 uM monolaurin",0
same,number of live iCTCs remaining after treatment,"patient RP01 (Folfirinox), iCTC control 550, 300 uM monolaurin",0
same,number of live iCTCs remaining after treatment,"patient RP03 (Folfirinox), iCTC control 23, 100 uM monolaurin",10
same,number of live iCTCs remaining after treatment,"patient RP03 (Folfirinox), iCTC control 23, 200 uM monolaurin",0
same,number of live iCTCs remaining after treatment,"patient RP03 (Folfirinox), iCTC control 23, 300 uM monolaurin",0
same,number of live iCTCs remaining after treatment,"patient RP04 (Folfirinox), iCTC control 30, 100 uM monolaurin",0
same,number of live iCTCs remaining after treatment,"patient RP04 (Folfirinox), iCTC control 30, 200 uM monolaurin",0
same,number of live iCTCs remaining after treatment,"patient RP04 (Folfirinox), iCTC control 30, 300 uM monolaurin",0
same,number of live iCTCs remaining after treatment,"patient RP10 (Folfirinox), iCTC control 100, 100 uM monolaurin",10
same,number of live iCTCs remaining after treatment,"patient RP10 (Folfirinox), iCTC control 100, 200 uM monolaurin",0
same,number of live iCTCs remaining after treatment,"patient RP10 (Folfirinox), iCTC control 100, 300 uM monolaurin",0
same,number of live iCTCs remaining after treatment,"patient RP11 (Folfirinox), iCTC control 40, 100 uM monolaurin",10
same,number of live iCTCs remaining after treatment,"patient RP11 (Folfirinox), iCTC control 40, 200 uM monolaurin",10
same,number of live iCTCs remaining after treatment,"patient RP11 (Folfirinox), iCTC control 40, 300 uM monolaurin",10
same,number of live iCTCs remaining after treatment,"patient RP12 (Folfirinox), iCTC control 30, 100 uM monolaurin",20
same,number of live iCTCs remaining after treatment,"patient RP12 (Folfirinox), iCTC control 30, 200 uM monolaurin",0
same,number of live iCTCs remaining after treatment,"patient RP12 (Folfirinox), iCTC control 30, 300 uM monolaurin",0
same,number of live iCTCs remaining after treatment,"patient RP16 (Folfirinox), iCTC control 30, 100 uM monolaurin",0
same,number of live iCTCs remaining after treatment,"patient RP16 (Folfirinox), iCTC control 30, 200 uM monolaurin",0
same,number of live iCTCs remaining after treatment,"patient RP16 (Folfirinox), iCTC control 30, 300 uM monolaurin",0
same,number of live iCTCs remaining after treatment,"patient RP17 (Gemzar), iCTC control 50, 100 uM monolaurin",0
same,number of live iCTCs remaining after treatment,"patient RP17 (Gemzar), iCTC control 50, 200 uM monolaurin",0
same,number of live iCTCs remaining after treatment,"patient RP17 (Gemzar), iCTC control 50, 300 uM monolaurin",0
same,number of live iCTCs remaining after treatment,"patient RP18 (Gemzar/Abraxane), iCTC control 175, 100 uM monolaurin",0
same,number of live iCTCs remaining after treatment,"patient RP18 (Gemzar/Abraxane), iCTC control 175, 200 uM monolaurin",0
same,number of live iCTCs remaining after treatment,"patient RP18 (Gemzar/Abraxane), iCTC control 175, 300 uM monolaurin",0
same,number of live iCTCs remaining after treatment,"patient RP22 (Keytruda), iCTC control 45, 100 uM monolaurin",0
same,number of live iCTCs remaining after treatment,"patient RP22 (Keytruda), iCTC control 45, 200 uM monolaurin",0
same,number of live iCTCs remaining after treatment,"patient RP22 (Keytruda), iCTC control 45, 300 uM monolaurin",0
same,number of live iCTCs remaining after treatment,"patient RP′14 (Folfirinox), iCTC control 40, 100 uM monolaurin",20
same,number of live iCTCs remaining after treatment,"patient RP′14 (Folfirinox), iCTC control 40, 200 uM monolaurin",15
same,number of live iCTCs remaining after treatment,"patient RP′14 (Folfirinox), iCTC control 40, 300 uM monolaurin",10
